From patent US20210223230A1, “Neamine Compositions and Methods of Use Thereof” (President and Fellows of Harvard College, priority 2008, published 2021)
Several values for one entry are separate records, joined by “and”; a condition that tells them apart may be missing. Equal values may be shown once. Entries after “also recorded” stand apart in the source; their conditions may differ. Read-outs that look alike come from different tables or passages of the source.

Assays:
[1] = test system: PC-3 human prostate cancer cells; experiment: Xenograft growth of PC-3 cell tumors in athymic mice; type: in vivo
Description: Male athymic mice were inoculated with 5×10^5 of PC-3 cells, and treated sub-cutaneously (s.c.) with PBS or neamine at a dose of 30 mg/kg body weight twice weekly for 8 weeks. Twelve mice were used per group. (A) Mice were examined by palpation for tumor appearance. (B) Tumor sizes were measured with a caliper and were expressed as length×width^2. At day 56, mice were sacrificed and tumor tissues were removed, photographed (C) and weighed (D).
Xenograft growth of PC-3 cell tumors. Five-week-old male athymic mice were inoculated s.c. with 100 μl of a mixture containing 5×10^5 PC-3 cells and 33 μl of Matrigel. The mice were treated s.c. with PBS or neamine (30 mg/kg) twice weekly for 8 weeks. Tumor sizes were measured every 3 days and recorded in mm^3 (Length×width^2). Mice were sacrificed at day 56 and the tumors were removed and the wet weights of the PC-3 tumors were recorded.

[2] = test system: angiogenesis; conditions: literature reports; cited from earlier work
[3] = test system: PC-3 cell tumor tissues; experiment: IHC and ISH of PC-3 xenograft tumor tissues (ANG localization, 47S rRNA, PCNA, vWF); type: in vivo, athymic mice
Description: PBS- and neamine-treated tumor tissues were fixed in formalin, embedded in paraffin, and sections of […] were cut. (A) Localization of ANG was determined by IHC with anti-human ANG monoclonal antibody 26-2F. […] (C) Proliferating cells were stained with an anti-PCNA monoclonal antibody (mAb). PCNA positive and total numbers of cells were counted in 5 randomly selected areas at 200× magnification. (D) Blood vessels were stained with an anti-vWF antibody and counted in five most vascularized areas at 200× magnification.

[4] = test system: MDA-MB-435 human breast cancer cells; conditions: cited from earlier work
[5] = test system: AKT-induced PIN; experiment: Prevention of AKT-induced PIN in 4-week-old MPAKT mice by small-molecule ANG inhibitors; conditions: for 47S rRNA level / transcription (ISH) / AKT phosphorylation (IHC) / localization of ANG in prostate epithelial cells (IHC) / PIN formation (H&E): daily i.p. 4 weeks from week 4; for PIN formation (H&E): neamine, neomycin 10 mg/kg, N65828 4 mg/kg
[6] = test system: HT-29 human colon adenocarcinoma; conditions: cited from earlier work
[7] = test system: ANG; conditions: literature reports; cited from earlier work
[8] = test system: established PIN; experiment: Reversal of established PIN in 12-week-old MPAKT mice; type: in vivo; conditions: for AKT expression and phosphorylation (IHC) / established PIN phenotype (H&E) / rRNA transcription / 47S rRNA level (ISH): daily i.p. 4 weeks from week 12; for apoptotic index: neomycin 10 mg/kg, N65828 4 mg/kg daily i.p. 4 weeks from week 12, control 0.95±0.11
[9] = Acute LD50 (subcutaneous) in mice; type: in vivo
[10] = Adverse side effects in the treated mice of these studies; type: in vivo; conditions: 30 mg/kg s.c. and 10 mg/kg i.p.
[11] = cited from earlier work
[12] = test system: ANG; experiment: Nuclear translocation of ANG; type: cell-based; conditions: inhibitors tested
[13] = test system: PC-3 human prostate cancer cells; conditions: nude mice, literature; cited from earlier work
[14] = in vivo; cited from earlier work
[15] = test system: LNCaP cells; experiment: LNCaP cell proliferation in phenol red-free and steroid-free medium; type: cell-based, human; conditions: ANG 0.1 μg/ml, DHT 10 nM
Description: (a) ANG stimulates LNCaP cell proliferation in the absence of androgens. Cells were culture in phenol red-free and charcoal/dextran-stripped (steroid-free) FBS for 2 day and stimulated with DHT (10 nM), ANG (0.1 μg/ml), or a mixture of the two for the time indicated. (b) Dose dependence. ANG was added to the cells and cultured for 4 days. (c) Anti-ANG mAb 26-2F inhibits DHT-induced cell proliferation. LNCaP cells were stimulated with 10 nM DHT in the presence of 26-2F or a control non-immune IgG for 3 days. (d) ANG over-expression promotes LNCaP proliferation in vitro. The vector control (pCI-Neo) and ANG transfectants (pCI-ANG) were cultured in phenol red-free and steroid-free medium for the time indicated. (e) Xenograft growth in castrated SCID mice. A mixture of 70 μl cell suspension (1×10^6 cells) and 30 μl Matrigel was injected s.c. per mouse (8 per group). The mice were castrated or sham-operated at the same time. Tumors were inspected and measured twice a week and the animals were sacrificed after 8 weeks of observation. (f) Endogenous ANG of LNCaP cells is essential for androgen-induced rRNA transcription. LNCaP cells were cultured in phenol red-free and steroid-free medium and incubated with DHT (10 nM), ANG (0.1 μg/ml), anti-ANG mAb 26-2F (60 μg/ml) or a mixture of DHT and 26-2F for 2 h. […]

[16] = target: ANG (Homo sapiens, UniProt P03950); conditions: screen of 18,310 compounds; cited from earlier work
[17] = mouse, in vivo, sc; cited from earlier work

Sequence of ANG (Homo sapiens, UniProt P03950) (P03950 25-147): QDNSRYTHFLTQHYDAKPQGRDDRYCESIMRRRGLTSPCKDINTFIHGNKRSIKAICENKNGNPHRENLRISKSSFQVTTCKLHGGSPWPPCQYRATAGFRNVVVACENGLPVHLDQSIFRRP

NC[C@H]1O[C@H](O[C@H]2[C@H](O)[C@@H](O)[C@H](N)C[C@@H]2N)[C@H](N)[C@@H](O)[C@@H]1O [neamine]
inhibition of tumor growth ([1]; day 56, from tumor weight vs control): 72.5% | average tumor weight ([1]; day 56, neamine 30 mg/kg s.c. twice weekly, control 620±310): 170 ± 50 mg | tumor growth rate in animals that did develop tumors ([1]; neamine 30 mg/kg s.c. twice weekly): decreased significantly | animals in which tumor establishment was prevented ([1]; neamine 30 mg/kg s.c. twice weekly for 8 weeks, n=12): 50% | animals with palpable tumors at day 20 ([1]; neamine 30 mg/kg s.c. twice weekly, day 20): 5 of the 12 | anti-angiogenic activity [2]: equally effective | decrease in cell proliferation ([3]; from PCNA positive cells vs control): 66% | decrease in tumor angiogenesis ([3]; from vessel density vs control): 72.8% | PCNA positive cells ([3]; neamine-treated PC-3 tumors, control 75.4±6): 25.6±6.4% | vessel density (vWF) ([3]; neamine-treated PC-3 tumors, control 82±3.2): 22.3±9.6 vessels per mm^2 | localization of ANG in tumor cells (IHC, 26-2F) ([3]; neamine-treated PC-3 tumors, nuclear in untreated): most of the ANG is extracellular | 47S rRNA level (ISH) ([3]; neamine-treated vs control tumor tissues): decreased significantly | xenograft growth [4]: inhibits | 47S rRNA level / transcription (ISH) [5]: decreased dramatically | AKT phosphorylation (IHC) [5]: did not differ from those of controls | localization of ANG in prostate epithelial cells (IHC) [5]: predominantly cytoplasmic and extracellular | PIN formation (H&E) [5]: inhibited PIN formation | vessel density (CD31) in ventral prostate ([5]; neamine 10 mg/kg daily 4 weeks, control 11.5±4.5): 4±0.5 per mm^2 | Ki-67 positive cells ([5]; neamine 10 mg/kg daily 4 weeks, untreated PIN 61.1±9.3): 24.9±8.4% | percentage of PIN in the ventral prostate ([5]; neamine 10 mg/kg daily i.p. 4 weeks from week 4, control 95.1±4.3): 39.6±1.4% | xenograft growth [6]: inhibits | effect on nuclear translocation of ANG [7]: comparable activity | AKT expression and phosphorylation (IHC) [8]: not affected | established PIN phenotype (H&E) [8]: shrank established PIN | rRNA transcription / 47S rRNA level (ISH) [8]: inhibited | apoptotic index (TUNEL) ([8]; neamine 10 mg/kg daily i.p. 4 weeks from week 12, untreated 0.89±0.12): 2.15±0.17 per duct | mice with PIN regression ([8]; neamine 10 mg/kg daily i.p. 4 weeks, 12 mice): all 12 | percentage of glands having PIN ([8]; neamine 10 mg/kg daily i.p. 4 weeks, before/control 95.2±3.2): 33% and 33.4±5.2% | fold by which the 30 mg/kg dose is lower than the reported LD50 ([9]; 30 mg/kg s.c. vs LD50 1250 mg/kg): 42 fold | fold by which LD50 is higher than the highest scheduled dose ([9]; LD50 1,250 mg/kg vs 160 mg/kg): 7.8 fold | acute or chronic adverse side effects [10]: No acute or chronic adverse side effects; also recorded: not observed | nephrotoxicity relative to that of neomycin ([11]; cell and organ culture): ~5% | ototoxicity relative to that of neomycin ([11]; cell and organ culture): ~6% | toxicity relative to neomycin (fold less toxic) ([11]; toxicity profile): close to that of streptomycin and kanamycin

CN[C@@H]1C[C@H]2O[C@@](C)([C@@H]1OC)n1c3ccccc3c3c4c(c5c6ccccc6n2c5c31)C(=O)NC4 [staurosporine]
effect on nuclear translocation of ANG [12]: no detectable effect

neomycin
xenograft growth of PC-3 cells [13]: inhibit | 47S rRNA level / transcription (ISH) [5]: inhibited | AKT phosphorylation (IHC) [5]: not altered | localization of ANG in prostate epithelial cells (IHC) [5]: extracellular | PIN formation (H&E) [5]: prevented PIN formation | effect on nuclear translocation of ANG [7]: blocks | AKT expression and phosphorylation (IHC) [8]: not different from that of the control group | established PIN phenotype (H&E) [8]: reversed | rRNA transcription / 47S rRNA level (ISH) [8]: dramatically decreased | apoptotic index [8]: 1.95±0.19 caspase 3 positive cells per duct | luminal cell size ([8]; neomycin 4 weeks from week 12): restored cell size to normal | size of the ventral prostate of a representative mouse ([8]; neomycin 4 weeks from week 12, control 69.8): 44.3 mm^3 | renal cortical levels relative to circulating levels in serum [14]: ≤ 20 times

gentamicin
anti-angiogenic activity [2]: not anti-angiogenic | effect on nuclear translocation of ANG [7]: do not block

C[C@]12CCC(=O)C[C@@H]1CC[C@@H]1[C@@H]2CC[C@]2(C)[C@@H](O)CC[C@@H]12 [DHT, dihydrotestosterone, reference compound]
LNCaP cell proliferation in the absence of androgens [15]: stimulates

O=c1c(-c2ccc(O)cc2)coc2cc(O)cc(O)c12 [Genistein]
effect on nuclear translocation of ANG [12]: no detectable effect

Nc1ccc(N=Nc2ccc(-c3ccc(O)cc3)cc2)c2ccc(S(=O)(=O)O)cc12 [N65828, 8-amino-5-(4′-hydroxybiphenyl-4-ylazo)naphthalene-2-sulfonate]
xenograft growth of PC-3 cells [13]: inhibit | 47S rRNA level / transcription (ISH) [5]: inhibited | AKT phosphorylation (IHC) [5]: not altered | localization of ANG in prostate epithelial cells (IHC) [5]: remained strongly in the nucleus | PIN formation (H&E) [5]: prevented PIN formation | selectivity of enzymatic inhibition, ANG vs RNase A [16]: preferentially inhibited | AKT expression and phosphorylation (IHC) [8]: not different from that of the control group | established PIN phenotype (H&E) [8]: reversed | rRNA transcription / 47S rRNA level (ISH) [8]: dramatically decreased | apoptotic index [8]: 2.02±0.21 caspase 3 positive cells per duct

[H]/N=C(/N)N[C@H]1[C@H](O)[C@@H](O)[C@H](O[C@@H]2O[C@@H](C)[C@](O)(C=O)[C@H]2O[C@@H]2O[C@@H](CO)[C@H](O)[C@@H](O)[C@@H]2NC)[C@@H](N/C(N)=N\[H])[C@@H]1O [streptomycin]
anti-angiogenic activity [2]: not anti-angiogenic | effect on nuclear translocation of ANG [7]: do not block | acute LD50 (subcutaneous) in mice [17]: 600 mg/kg

NCC[C@H](O)C(=O)N[C@@H]1C[C@H](N)[C@@H](O[C@H]2O[C@H](CN)[C@@H](O)[C@H](O)[C@H]2O)[C@H](O)[C@H]1O[C@H]1O[C@H](CO)[C@@H](O)[C@H](N)[C@H]1O [amikacin]
anti-angiogenic activity [2]: not anti-angiogenic | effect on nuclear translocation of ANG [7]: do not block

COc1ccc2c(c1)CC[C@@H]1[C@@H]2CC[C@]2(C)[C@@H](NCCCCCCN3C(=O)C=CC3=O)CC[C@@H]12 [U-73122]
effect on nuclear translocation of ANG [12]: only marginally block

NC[C@@H]1O[C@H](O[C@H]2[C@@H](O)[C@H](O[C@@H]3[C@@H](O)[C@H](N)C[C@H](N)[C@H]3O[C@H]3O[C@H](CO)[C@@H](O)[C@H](O)[C@H]3N)O[C@@H]2CO)[C@H](N)[C@@H](O)[C@@H]1O [paromomycin]
anti-angiogenic activity [2]: not anti-angiogenic | effect on nuclear translocation of ANG [12]: does not detectably block | effect on nuclear translocation of ANG [7]: do not block

COc1ccc2c(c1)CC[C@@H]1[C@@H]2CC[C@]2(C)[C@@H](NCCCCCCN3C(=O)CCC3=O)CC[C@@H]12 [U-73343]
effect on nuclear translocation of ANG [12]: only marginally block
